The source of these data is ChEMBL document CHEMBL4359924, “Discovery of a novel 3,4-dimethylcinnoline carboxamide M4 positive allosteric modulator (PAM) chemotype via scaffold hopping” (Bioorg Med Chem Lett, 2019).

Data set [1] in a line: Intrinsic clearance in human microsomes. The data set is classed as ADME, Microsome.
Data set [2] in a line: Intrinsic clearance in rat microsomes. In kind it is ADME, Microsome.
Data set [3] in a line: Fraction unbound in rat plasma. The data set is classed as ADME, cell-free.
Data set [4] can be described thus: Fraction unbound in human plasma. In kind it is ADME, cell-free.
Data set [5] is described as follows: Fraction unbound in rat brain. The data set is classed as ADME, tissue-based.
The nature of data set [6]: Brain to plasma partition coefficient, Kp of the compound in Sprague-Dawley rat at 0.2 mg/kg, iv measured for 0.25 hrs. In kind it is ADME, organism-based. The settings on record: brain and plasma.
A short description of data set [7]: Unbound brain to plasma concentration ratio in Sprague-Dawley rat at 0.2 mg/kg, iv measured for 0.25 hrs. In kind it is ADME, organism-based. The settings on record: brain and plasma, read-out: K(p,uu,brain).
Data set [8] has as its target Muscarinic acetylcholine receptor M4 (Homo sapiens) (UniProt P08173). Description: Positive allosteric modulation of human M4 receptor expressed in CHO cells co-expressing Gqi5 assessed as increase in acetylcholine-induced calcium mobilization incubated with EC20 ACh for 140 secs and subsequent EC80 Ach addition further incubated for 120 secs by Fluo-4-AM dye based fluorescence …. (In general: Calcium flux is commonly read through the fluorescence of an indicator in the cells.)

Muscarinic acetylcholine receptor M4 (Homo sapiens), sequence (P08173 whole entry, looked up): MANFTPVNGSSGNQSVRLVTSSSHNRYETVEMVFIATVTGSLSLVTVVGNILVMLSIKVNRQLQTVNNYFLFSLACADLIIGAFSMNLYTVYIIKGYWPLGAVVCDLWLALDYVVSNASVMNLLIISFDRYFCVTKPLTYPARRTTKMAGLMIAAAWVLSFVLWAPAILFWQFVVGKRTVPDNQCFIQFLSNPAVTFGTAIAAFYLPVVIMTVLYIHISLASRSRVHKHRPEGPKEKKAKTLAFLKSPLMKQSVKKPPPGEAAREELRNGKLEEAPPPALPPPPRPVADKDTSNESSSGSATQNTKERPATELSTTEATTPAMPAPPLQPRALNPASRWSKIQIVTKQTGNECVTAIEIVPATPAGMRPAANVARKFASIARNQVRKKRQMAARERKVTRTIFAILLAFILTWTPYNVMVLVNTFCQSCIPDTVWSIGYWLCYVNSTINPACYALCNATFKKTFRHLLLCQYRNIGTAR

Consider `Cc1nnc2ccc(C(=O)NC3CN(c4cc(Cl)ncc4Cl)C3)cc2c1C`, for which the CLint scaled – broadly, the capacity of the preparation to metabolise the compound, expressed as a volume cleared per time – in data set [1] was determined as 60 mL/min/kg; in data set [2] it was 32 mL/min/kg. The fraction unbound (usually the share of the substance not bound to proteins or other matrix) in data set [3] was determined as 0.017; in data set [4] it was 0.06; in data set [5], 0.036. In data set [6], the partition ratio (Kp) – broadly, the ratio of the level in a tissue or fluid to that in plasma or blood – at 0.25 h was found to be 0.03. Also, the Kp uu at 0.25 h in data set [7] came out at 0.06. The Emax (usually the size of the effect at its maximum, as opposed to the concentration needed) in data set [8] was 92%.

Turning to `Cc1nnc2ccc(C(=O)NC3CN(c4ncccc4Cl)C3)cc2c1C`, in data set [8], the Emax is 84%.

With `Cc1nnc2ccc(C(=O)NC3CN(c4ncc(C(F)(F)F)cn4)C3)cc2c1C`, the Emax in data set [8] was 77%.

Take `Cc1nnc2ccc(C(=O)NC3CN(c4cccc(C(F)(F)F)n4)C3)cc2c1C`: the Emax in data set [8] stood at 64%.

As to `Cc1nnc2ccc(C(=O)NC3CN(c4ccc(Cl)cn4)C3)cc2c1C`, the Emax in data set [8] worked out at 73%.

As for `Cc1nnc2ccc(C(=O)NC3CN(c4ncc(C5CC5)cc4Cl)C3)cc2c1C`, the Emax in data set [8] was determined as 77%.

As to `Cc1nnc2ccc(C(=O)NC3CN(c4ncc(OC(C)C)cn4)C3)cc2c1C`, in data set [8], the Emax was found to be 88%.

With `Cc1nnc2ccc(C(=O)NC3CN(c4ncc(F)cc4Cl)C3)cc2c1C`, the CLint scaled in data set [1] came to 79 mL/min/kg; in data set [2], 17 mL/min/kg. In addition, the fraction unbound in data set [3] was 0.015; in data set [4], 0.048; in data set [5], 0.036. The Kp at 0.25 h in data set [6] is 0.12. For the same compound, the Kp uu at 0.25 h in data set [7] came out at 0.29. In data set [8], the Emax came to 80%.

Regarding `Cc1nnc2ccc(C(=O)NC3CN(c4ccc(OC(F)F)nc4)C3)cc2c1C`, in data set [8], the Emax came out at 81%.

Turning to `Cc1nnc2ccc(C(=O)NC3CN(c4ncc(C(F)(F)F)cc4Cl)C3)cc2c1C`, the Emax in data set [8] stood at 76%.

Turning to `Cc1nnc2ccc(C(=O)NC3CN(c4ccc(F)c(F)c4)C3)cc2c1C`, the results for the CLint scaled in data set [1] and in data set [2] were 50 mL/min/kg and 26 mL/min/kg, respectively. The fraction unbound stood at 0.002 in data set [3], 0.051 in data set [4] and 0.022 in data set [5]. For the same compound, the Kp at 0.25 h in data set [6] was less than 0.05. Moreover, in data set [7], the Kp uu at 0.25 h was less than 0.56. Moreover, the Emax in data set [8] is 82%.

Take `Cc1nnc2ccc(C(=O)NC3CN(c4cccc(F)n4)C3)cc2c1C`: the Emax in data set [8] came to 84%.

Regarding `Cc1nnc2ccc(C(=O)NC3CN(c4ccc(C#N)cn4)C3)cc2c1C`, the Emax in data set [8] stood at 81%.

For the compound `Cc1nnc2ccc(C(=O)NC3CN(c4ncc(Cl)cc4F)C3)cc2c1C`, the CLint scaled in data set [1] was determined as 54 mL/min/kg; in data set [2], 12 mL/min/kg. The fraction unbound is 0.026 in data set [3], 0.032 in data set [4] and 0.009 in data set [5]. In data set [6], the Kp at 0.25 h is 0.03. Also, the Kp uu at 0.25 h in data set [7] was determined as 0.09. In data set [8], the maximal effect (Emax) stood at 82%.

`Cc1nnc2ccc(C(=O)NC3CN(c4cccc(Cl)n4)C3)cc2c1C`: the Emax in data set [8] turned out to be 77%.

On to `Cc1nnc2ccc(C(=O)NC3CN(c4ncccc4F)C3)cc2c1C`, for which the Emax in data set [8] worked out at 83%.

Consider `COc1cc(N2CC(NC(=O)c3ccc4nnc(C)c(C)c4c3)C2)c(Cl)cn1`, for which the CLint scaled in data set [1] worked out at 34 mL/min/kg; in data set [2], 17 mL/min/kg. Besides, the fraction unbound in data set [3] came to 0.012; in data set [4], 0.038; in data set [5] it was 0.023. Also, in data set [6], the Kp at 0.25 h is 0.09. In addition, the Kp uu at 0.25 h in data set [7] amounted to 0.02. For the same compound, the Emax in data set [8] is 74%.

Consider `Cc1nnc2ccc(C(=O)NC3CN(c4ncc(C#N)cc4Cl)C3)cc2c1C`, for which the CLint scaled was found to be 63 mL/min/kg in data set [1] and 17 mL/min/kg in data set [2]. Further, the figures for the fraction unbound in data set [3], in data set [4] and in data set [5] were 0.008, 0.03 and 0.042, respectively. This compound had a Kp at 0.25 h in data set [6] of 0.04. Also, in data set [7], the Kp uu at 0.25 h is 0.21. For the same compound, in data set [8], the Emax was 72%.

As for `Cc1nnc2ccc(C(=O)NC3CN(c4cnc(C5CC5)cn4)C3)cc2c1C`, in data set [8], the Emax stood at 80%.
